Assay results published in patent US10294272B2, “Peptides with antagonistic activities against natural CXCR4” (Pharis Biotec GmbH, priority 2013, dated 2019).
Positions of bridges follow the written chain, without caps; N, C: chain ends. Residues, ends and D or L forms follow the SMILES beside them. Chains are numbered I, II in the order given. No end group written: not given here.

What was measured:
[1] = biological target: T1, CXCR4 (Homo sapiens, UniProt P61073); assay: Competition with CXCL12 binding to CXCR4 (real-time fluorescence, eGFP-CXCR4 cells)
T1 construct: expressed in transfected cells
Procedure: Anti-human CXCR4 (clone 12G5, IgG2a) or anti-human CXCR7 (clone 9C4) monoclonal antibodies (mAbs) were purchased from R&D Systems (Minneapolis, Minn.). […] The human chemokines CXCL12 and CXCL12-TexasRed were synthesized as described (Valenzuela-Fernandez, et al. 2001). The human chemokine CXCL11 was purchased from Clinisciences SAS (France).
Experiments were performed using cells stably expressing eGFP-CXCR4, suspended in HEPES-bovine serum albumin buffer (10 mM HEPES, 137.5 mM NaCl, 1.25 mM MgCl2, 1.25 mM CaCl2, 6 mM KCl, 10 mM glucose, 0.4 mM NaH2PO4, 0.1% bovine serum albumin (w/v), pH 7.4) (typically at 10^6 cells/mL). Time-based recordings of the fluorescence emitted at 510 nm (excitation at 470 nm) were performed at 21° C. using a spectrofluorimeter and sampled every 0.3 s. Fluorescence binding measurements were initiated by adding at 30 s 100 nM of CXCL12-TR to the 1 mL cell suspension. For competition experiments, EGFP-CXCR4 expressing cells were preincubated for 10 min in the absence or presence of various concentrations of unlabelled drugs. Then, CXCL12-TR (100 nM) was added and fluorescence was recorded until equilibrium was reached (300 s). Data were analyzed using Kaleidagraph 3.08 software (Synergy Software, Reading, Pa., USA).

[2] = biological target: T2, CXCR4 (Mus musculus, UniProt P70658); assay: Asthma mouse model (OVA challenge); format: in vivo; conditions: mice, i.p., allergen challenge with OVA
T2 construct: from tissue; host or cells: live mice (C57Bl/6J for mobilization)
Procedure: Mice were sensitized by intraperitoneal (i.p.) injection on days 0, 1 and 2 of 50 μg ovalbumin (OVA, Sigma-Aldrich, A5503) adsorbed on 2 mg aluminium hydroxide (Sigma-Aldrich, 23918-6) in saline. Mice were challenged by intranasal (i.n.) instillation of 10 μg OVA in 25 μl saline (12.5 μl/nostril) or saline alone for control mice on days 5, 6 and 7 under anesthesia (50 mg/kg ketamine and 3.3 mg/kg xylazine, i.p.). the peptide of SEQ ID NO 16 or ALB409-423 in saline were administered i.p. (16 μmol/kg) two hours before each OVA challenge. Bronchoalveolar lavage (BAL) and differential cell counts were performed 24 h after the last OVA challenge as previously reported in (Rebber et al., 2012).

[3] = test system: X4 tropic HIV-1 NL4-3; conditions: blocking X4 tropic HIV-1 NL4-3 infection
Procedure: (§1) Antiviral screening was performed using the X4 HIV-1 NL4-3 molecular clone.
(§2) HIV-1, HIV-2 and SIV molecular clones differing in coreceptor tropism were generated by transient transfection of 293T cells with proviral DNA by the calcium phosphate method (CalPhos™ Mammalian Transfection Kit, Clon-tech). After overnight incubation, the transfection mixture was replaced by DMEM medium supplemented with 10% FCS, and virus stocks were harvested 48 hrs post-transfection. Subsequently, the culture supernatant was centrifuged for 5 min at 3000 rpm to remove cell debris. The resulting virus stock was quantified by p24 (HIV) or p27 (SIV) antigen ELISA. Virus stocks were either used immediately or stored in aliquots at −80° C.
(§3) TZM-bl reporter cells containing the LacZ reporter gene under the control of the HIV-1 promoter were seeded in 96-well F-bottom microtiter plates (Greiner Bio-One). On the following day, the cells were preincubated with various dilutions of the peptide of SEQ ID NO 16 or its derivatives for 1 hour and subsequently infected with HIV-1, HIV-2, and SIV. Infection rates were determined after 2 days using the one-step Tropix Gal-Screen Kit, as recommended by the manufacturer.

[4] = test system: X4 HIV-1 strains
Procedure: as §1, §2, §3

T2 sequence (P70658 whole entry): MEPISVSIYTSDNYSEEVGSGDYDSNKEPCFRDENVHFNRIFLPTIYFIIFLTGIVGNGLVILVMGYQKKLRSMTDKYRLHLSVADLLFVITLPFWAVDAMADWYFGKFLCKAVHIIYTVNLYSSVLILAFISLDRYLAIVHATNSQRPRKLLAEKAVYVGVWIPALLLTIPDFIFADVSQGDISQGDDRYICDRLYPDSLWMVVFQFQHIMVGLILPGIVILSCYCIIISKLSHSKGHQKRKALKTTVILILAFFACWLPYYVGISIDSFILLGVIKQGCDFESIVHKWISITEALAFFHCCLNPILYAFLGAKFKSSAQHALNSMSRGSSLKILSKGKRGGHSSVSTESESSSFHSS
T1 sequence (P61073 whole entry): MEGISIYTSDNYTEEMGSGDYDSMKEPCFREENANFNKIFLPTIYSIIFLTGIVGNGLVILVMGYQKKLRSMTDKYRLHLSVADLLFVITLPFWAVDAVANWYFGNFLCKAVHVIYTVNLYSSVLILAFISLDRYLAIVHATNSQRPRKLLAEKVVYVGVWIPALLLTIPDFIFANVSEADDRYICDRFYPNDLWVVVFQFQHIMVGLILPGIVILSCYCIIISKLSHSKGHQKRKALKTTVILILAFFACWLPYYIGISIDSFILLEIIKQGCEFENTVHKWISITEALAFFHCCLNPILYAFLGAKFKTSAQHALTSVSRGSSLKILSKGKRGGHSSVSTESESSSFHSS

Compound	IC50 [3] [nM]	further results
ALB409-423: ALB409-423, which does not interact with CXCR4; control peptide in the asthma mouse model (VRYTKKVPQVSTPTL) [reference compound]	–	interaction with CXCR4 [1]: does not interact; CXCR4-dependent infiltration of neutrophils, lymphocytes and eosinophils into the airways [2]: no significant effects; infiltration of macrophages [2]: no significant effects
IVRYSKKVPQVS [408I-419 T412S, IVRYSKKVPQVS]	2090	–
CC[C@H](C)[C@H](N)C(=O)N[C@H](C(=O)N[C@@H](CCCNC(=N)N)C(=O)N[C@@H](Cc1ccc(O)cc1)C(=O)N[C@H](C(=O)N[C@@H](CCCCN)C(=O)N[C@@H](CSSC[C@H](NC(=O)[C@H](CCCCN)NC(=O)[C@@H](NC(=O)[C@H](Cc1ccc(O)cc1)NC(=O)[C@H](CCCNC(=N)N)NC(=O)[C@@H](NC(=O)[C@@H](N)[C@@H](C)CC)C(C)C)[C@@H](C)O)C(=O)N[C@H](C(=O)N1CCC[C@H]1C(=O)N[C@@H](CCC(N)=O)C(=O)N[C@H](C(=O)N[C@@H](CO)C(=O)O)C(C)C)C(C)C)C(=O)N[C@H](C(=O)N1CCC[C@H]1C(=O)N[C@@H](CCC(N)=O)C(=O)N[C@H](C(=O)N[C@@H](CO)C(=O)O)C(C)C)C(C)C)[C@@H](C)O)C(C)C [408I-419 K414C x2, (IVRYTKCVPQVS)2] (I: H-IVRYTKCVPQVS-OH / II: H-IVRYTKCVPQVS-OH; disulfide I:7-II:7; N-terminus and C-terminus assumed)	1050	–
IVRWSKKVPQCS [408I-419 WSC01, IVRWSKKVPQCS]	870	–
HSA precursor: highly abundant HSA precursor; the most abundant protein in human plasma, of which the SEQ ID NO 16 peptide is a fragment	–	antiretroviral effect [4]: no antiretroviral effect
LLVRYTKKVPQVS [Derivative 407-419, LLVRYTKKVPQVS]	11100	–
IVRWCKKVPQVS [408I-419 WC03, IVRWCKKVPQVS]	1820	–
CC[C@H](C)[C@H](N)C(=O)N[C@H](C(=O)N[C@@H](CCCNC(=N)N)C(=O)N[C@@H](Cc1c[nH]c2ccccc12)C(=O)N[C@@H](CO)C(=O)N[C@@H](CCCCN)C(=O)N[C@@H](CCCCN)C(=O)N[C@H](C(=O)N1CCC[C@H]1C(=O)N[C@@H](CSSC[C@H](NC(=O)[C@@H]1CCCN1C(=O)[C@@H](NC(=O)[C@H](CCCCN)NC(=O)[C@H](CCCCN)NC(=O)[C@H](CO)NC(=O)[C@H](Cc1c[nH]c2ccccc12)NC(=O)[C@H](CCCNC(=N)N)NC(=O)[C@@H](NC(=O)[C@@H](N)[C@@H](C)CC)C(C)C)C(C)C)C(=O)N[C@H](C(=O)N[C@@H](CO)C(=O)O)C(C)C)C(=O)N[C@H](C(=O)N[C@@H](CO)C(=O)O)C(C)C)C(C)C)C(C)C [408I-419 WSC02 x2, (IVRWSKKVPCVS)2] (I: H-IVRWSKKVPCVS-OH / II: H-IVRWSKKVPCVS-OH; disulfide I:10-II:10)	120	–
IVRWTCKVPQVS [408I-419 WCO2, IVRWTCKVPQVS]	2100	–
IVRYTKCVPQVS [408I-419 K414C, IVRYTKCVPQVS]	5870	–
IVRWSKKVPCVS [408I-419 WSC02, IVRWSKKVPCVS]	310	–
